Measured values from patent US4672066A, “Derivatives of 4-acetyl-3-hydroxy-2-alkyl-phenoxycarboxylic acids” (Hoffmann-La Roche Inc., priority 1985, dated 1987).
Where two headings read alike, the source gives them in different places.

Key:
PAF [1] = biological target: T1, PAF (Canis lupus familiaris, UniProt A0A8I3NSH0); test: PAF Radioreceptor Binding Assay; conditions: dog platelets, 3H-PAF
T1 construct: followed by 2×10^7 dog platelets; from tissue; host or cells: washed platelets from citrate-treated dog blood
T1 sequence (A0A8I3NSH0 1-343): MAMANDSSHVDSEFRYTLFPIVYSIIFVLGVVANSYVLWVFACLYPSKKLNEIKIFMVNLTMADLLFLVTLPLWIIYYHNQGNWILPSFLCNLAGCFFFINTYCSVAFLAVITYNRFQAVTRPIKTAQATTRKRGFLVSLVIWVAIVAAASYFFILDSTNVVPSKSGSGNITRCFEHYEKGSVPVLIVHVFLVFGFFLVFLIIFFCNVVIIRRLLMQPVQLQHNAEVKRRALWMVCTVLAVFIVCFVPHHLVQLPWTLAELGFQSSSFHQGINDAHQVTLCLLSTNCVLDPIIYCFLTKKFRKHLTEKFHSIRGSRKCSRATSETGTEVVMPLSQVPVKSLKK
Protocol: Platelet rich plasma is prepared by centrifugation of citrate-treated dog blood. Acidification to pH 6.5 with 0.15 M citric acid and centrifugation for 10 minutes at 1000 xg yields a platelet pellet which is then washed by resuspension in EDTA-Phosphate Buffered Saline (PBS) and recentrifuged. The washed platelet preparation is adjusted to 2×10^7 platelets/50 μl in 0.1% BSA-PBS. […] After mixing, incubating for 10 minutes at room temperature, and centrifuging for 1 minute in a Beckman Microfuge B (8000 xg), the pellet is removed by clipping off the tip of the tube, the platelets are solubilized with 200 μl of 50% methanol, and counted in 10 ml of Aquasol. […] Results obtained with representative compounds of the present invention in this assay are summarized hereinafter in Tables I, II and III.

TXA2 synthase = biological target: T2, TXA2 synthase (Homo sapiens, UniProt P24557); test: Thromboxane Synthase Inhibition, In Vitro; format: biochemical; conditions: at 1 μM (value in parentheses), human platelet microsomes
T2 construct: microsomal fractions from human platelets as enzyme source; from tissue; host or cells: microsomal fraction of human platelets
T2 sequence (P24557 1-533): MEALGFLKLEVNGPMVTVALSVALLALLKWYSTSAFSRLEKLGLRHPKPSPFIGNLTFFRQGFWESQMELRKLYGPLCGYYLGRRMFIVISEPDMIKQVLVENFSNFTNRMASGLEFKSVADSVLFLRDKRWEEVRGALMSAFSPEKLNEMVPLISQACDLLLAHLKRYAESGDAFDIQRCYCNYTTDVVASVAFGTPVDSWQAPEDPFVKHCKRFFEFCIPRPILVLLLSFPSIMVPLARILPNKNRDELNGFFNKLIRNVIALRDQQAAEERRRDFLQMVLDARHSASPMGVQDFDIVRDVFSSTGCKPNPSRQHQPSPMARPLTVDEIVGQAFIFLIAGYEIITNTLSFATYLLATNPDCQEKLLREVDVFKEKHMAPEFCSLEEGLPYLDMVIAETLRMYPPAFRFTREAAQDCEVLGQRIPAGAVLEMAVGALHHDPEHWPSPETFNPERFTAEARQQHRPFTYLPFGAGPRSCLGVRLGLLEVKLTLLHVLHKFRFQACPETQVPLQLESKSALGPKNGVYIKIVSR
Protocol: TXA2 synthase activity is measured by following the conversion of ^14 C-prostaglandin endoperoxide (PGH2) to ^14 C-thromboxane A2 (TXA2) using microsomal fractions from human platelets as enzyme source. In the aqueous incubation medium, the TXA2 decomposes rapidly into TXB2. The amount of TXA2 synthase is adjusted so that under the conditions of the assay approximately 80-90% of the substrate, PGH2, is converted to product in control tubes. To prepare ^14 C-PGH2, ^14 C-AA (50-60 mCi/mmole; Rose Chem.) is incubated with sheep seminal vesicular gland microsomes for 1.5 minutes at 37° C. and then the ^14 C-PGH2 is extracted with diethylether, purified on columns of Sephadex LH-20 or silicic acid, and stored in acetone at -70° C. Incubations are done as follows. Sufficient ^14 C-PGH2 yield a final substrate concentration of 10 μM (~30,000 cpm) is added to the incubation tubes and then the acetone is removed under nitrogen. […] The tubes are incubated at 22° C. for 2 minutes, the reaction is stopped and then the radioactive products and the unconverted PGH2 are extracted and analyzed by thin layer chromatography. […] The amount of ^14 C-PGH2 converted to products was used as a measure of TXA2 synthase activity. Inhibitors were tested initially at a final concentration of 100 μM. Results obtained with representative compounds of the present invention in this assay are summarized hereafter in Table I, II and III.

SRS-A = test: Guinea Pig Ileum, In Vitro (SRS-A antagonism)
Protocol: The guinea pig ileum bioassay system has been described by Orange and Austen, Adv. Immunol. 10: 104-144 ([…]). A 1.5 cm segment is removed from animals weighting 300-400 g. and suspended in an organ bath containing 10 ml. of Tyrodes solution with 10^-6 M atropine sulfate and 10^-6 M pyrilamine maleate. The bath is maintained at 37° C. and aerated with a mixture of 95% oxygen and 5% carbon dioxide. The SRS-A utilized in this screen is obtained by challenging chopped lung fragments from actively sensitized guinea pigs with egg albumin, in vitro. A dose-response curve to SRS-A challenge is established for the ileum. The dose of SRS-A which gives 50% of the maximal contraction (EC50) is then used for subsequent challenge. The drug concentration which inhibits, by 50%, the SRS-A induced constriction of the guinea pig ileum is determined.

leukotriene E4 (LTE4) = test: LTE4-Induced Guinea Pig Bronchoconstriction Test; format: in vivo; conditions: 10 mg/kg i.v.
Protocol: In this test system, the ability of a drug to inhibit the bronchoconstriction induced in guinea pigs by leukotriene E4 (LTE4) is measured. A maximally constrictory dose of LTE4 is injected into guinea pigs which have been pretreated with propranolol (0.1 mg/kg, i.v.) for 5 minutes prior to challenge. The bronchoconstriction (in cm H2 O) elicited in animals pretreated intravenously for 30 seconds (at 10 mg/kg) or orally for 2 hours (at 100 mg/kg) with the test drug prior to LTE4 challenge is compared to that elicited in the absence of the test compound to determine the in vivo activity of the drug.

PAF [2] = test: PAF-Induced Guinea Pig Bronchoconstriction Test; format: in vivo, guinea pig (Hartley); conditions: for inhibition of PAF-induced bronchoconstriction: 1.0 mg/kg i.v., 1 min pretreatment
Protocol: Male guinea pigs (Hartley strain) weighing 300 to 500 g are anesthetized with urethane (2 g/kg) intraperitoneally and a polyethylene cannula is inserted into the jugular vein for drug administration. Tracheal pressure is recorded from a cannula inserted in the trachea and connected to a Statham pressure transducer. Propranolol (0.1 mg/kg) is administered intravenously five minutes before challenge with synthetic PAF, the animals's skeletal muscles are then paralyzed with succinylcholine (1.2 mg/kg i.v.), and the animal is respirated using a Harvard small animal respirator operating at 40 breaths/min and 2.5 cc stroke volume. Under these conditions PAF induces a dose-dependent increase in ventilatory pressure over a dose range of 0.5 to 5 pg/kg i.v. The bronchoconstrictive effect of PAF occurs at approximately a 10-fold lower dose than that obtained with LTE. For screening purposes animals are challenged with a single dose of PAF (10 pg/kg i.v.).
Test compounds are screened by either the intravenous route (1.0 mg/kg i.v., 1 min pretreatment) or oral route (100 mg/kg p.o., 2 hour pretreatment). The peak increase in ventilatory pressure (cm H2 O) is recorded for three control animals and five drug-treated animals and the percent inhibition determined.

PAF [3] = test: PAF-Induced Rat Skin Wheal Test; format: in vivo, Sprague-Dawley rats; conditions: for inhibition of PAF-induced rat skin wheal: 5 mg/kg i.v. (1 min. pretreatment)
Protocol: This test evaluates the ability of compounds to inhibit PAF-induced increases in vascular permeability in the skin of Sprague-Dawley rats. PAF induces a dose-dependent skin wheal response in this system over a dose range of 0.0001 to 1 pg/0.05 ml injection. The profound vasoactive activity of PAF is emphasized by the fact that the maximum skin wheal response is considerably greater than that obtained with LTE and an EC50 response is elicited at a 10-fold lower dose. For drug screening purposes, 5 ng of PAF is injected intradermally into anesthetized rats which had been pretreated for 30 minutes with an antihistamine (pyrilamine maleate, 50 mg/kg, i.p.) and an antiserotonin compound (methylsergide maleate, 4 mg/kg, i.p.). Immediately thereafter, the test compound is injected intravenously into the tail vein of the animal. This is followed by an intravenous injection of Evan's blue dye (0.5% in saline). Thirty minutes later the animals are sacrificed and the increase in vascular permeability induced by the migration of dye into the injection point in the skin is determined. For this purpose, rats are sacrificed by cervical dislocation, the dorsal skin is removed, the long and short axis of each […] is measured with a metric vernier caliper and the average diameter is obtained.

[4] = Table II, read-out: TXA2 Synth. Inhib. % at (1μM)
[5] = Table II, read-out: SRS Antagonism IC50
[6] = Table I, read-out: SRS-A Antagonism IC50
[7] = Table III, read-out: TXA2 Synth. Inhib. % at (1 μM)

With `CCCc1c(OCCCCCC(=O)NCCSc2cccnc2)ccc(C(C)=O)c1O` as the compound, how does the IC50 (PAF [1]; Table II) read?
The IC50 was 1000 nM.

And the inhibition at 1 µM (TXA2 synthase; [4])?
The inhibition at 1 µM was 35%.

What about the IC50 (SRS-A; [5]) of the same compound?
Its IC50 is 1000 nM.

With `CCCc1c(OCC(O)COc2ccc3c(=O)cc(C(=O)O)oc3c2CCC)ccc(C(C)=O)c1O` (centres unmarked) [7-[3-(4-acetyl-3-hydroxy-2-propylphenoxy)-2-hydroxypropoxy]-4-oxo-8-propyl-4H-1-benzopyran-2-carboxylic acid, reference compound] as the compound, how does the IC50 (SRS-A; standard SRS-A antagonist, read-out: IC50, SRS-A induced constriction of the guinea pig ileum) read?
Its IC50 is 35 nM.

Which results are given for `CCCc1c(OCCCCCC(=O)NCCCCc2cccnc2)ccc(C(C)=O)c1O.Cl` [Example 4, 6-(4-Acetyl-3-hydroxy-2-propylphenoxy)-N-[4-(3-pyridinyl)butyl]hexanamide hydrochloride]?
IC50 (PAF [1]; Table I): 700 nM; IC50 (SRS-A; [6]): 6000 nM; inhibition of LTE4-induced bronchoconstriction (leukotriene E4 (LTE4)): 95%

With `CCCc1c(OCCCC(=O)NCCCCc2cccnc2)ccc(C(C)=O)c1O` [Example 5, 4-(4-Acetyl-3-hydroxy-2-propylphenoxy)-N-[4-(3-pyridinyl)butyl]butanamide] as the compound, how does the IC50 (PAF [1]; Table I) read?
The IC50 was 250 nM.

And the inhibition at 1 µM (TXA2 synthase; Table I, read-out: TXA2 Syn. Inhib. (1μM))?
Its inhibition at 1 µM is 89%.

And the inhibition at 1 µM (TXA2 synthase; [7])?
Its inhibition at 1 µM is 89%.

And the IC50 (SRS-A; [6])?
The IC50 was 5000 nM.

And the “inhibition of PAF-induced bronchoconstriction” value (PAF [2])?
The value was 64±12%.

Which “inhibition of PAF-induced bronchoconstriction” value (PAF [2]) does the source give for `CCCc1c(OCCCC#CC(=O)NCCCCc2cccnc2)ccc(C(C)=O)c1O` [Example 21, 6-(4-Acetyl-3-hydroxy-2-propylphenoxy)-N-[4-(3-pyridinyl)butyl]-2-hexynamide] here?
Its value is 98±10%.

What about the “inhibition of PAF-induced rat skin wheal” value (PAF [3]) of the same compound?
The value was 62±3%.

With `CCCc1c(OCCCCCC(=O)OCCCc2cccnc2)ccc(C(C)=O)c1O.Cl` [Example 28, 6-(4-Acetyl-3-hydroxy-2-propylphenoxy)-hexanoic acid, 3-(3-pyridinyl)propyl ester hydrochloride] as the compound, how does the “inhibition of LTE4-induced bronchoconstriction” value (leukotriene E4 (LTE4)) read?
Its value is 87%.

For `CCCc1c(OCCCCCNC(=O)NCCCCc2cccnc2)ccc(C(C)=O)c1O` [Example 29, N-[5-(4-Acetyl-3-hydroxy-2-propylphenoxy)-pentyl]-N'-[4-(3-pyridinyl)butyl]urea], which IC50 (PAF [1]; Table III) is on record?
The IC50 was 900 nM.

What about the inhibition at 1 µM (TXA2 synthase; [7]) of the same compound?
The inhibition at 1 µM was 89%.

And the “inhibition of PAF-induced bronchoconstriction” value (PAF [2])?
The value was 68±10%.

Which “inhibition of PAF-induced bronchoconstriction” value (PAF [2]) does the source give for `CCCc1c(OCc2ccc(C(=O)NC(C)CCCc3cccnc3)cc2)ccc(C(C)=O)c1O` (centres unmarked) [Example 34, 4-[(4-Acetyl-3-hydroxy-2-propylphenoxy)-methyl]-N-[1-methyl-4-(3-pyridinyl)butyl]benzamide] here?
Its value is 85±8%.

What about the “inhibition of PAF-induced rat skin wheal” value (PAF [3]) of the same compound?
Its value is 63±4%.

For `CCCc1c(OCc2cccc(C(=O)NCCCCc3cccnc3)c2OCC)ccc(C(C)=O)c1O` [Example 36, 3-[(4-Acetyl-3-hydroxy-2-propylphenoxy)-methyl]-2-ethoxy-[4-(3-pyridinyl)butyl]benzamide], which “inhibition of PAF-induced bronchoconstriction” value (PAF [2]) is on record?
Its value is 96±2%.

For `CCCc1c(OCc2ccc(C(=O)NCCCCc3cccnc3)c(OCC)c2)ccc(C(C)=O)c1O` [Example 37, 4-[(4-Acetyl-3-hydroxy-2-propylphenoxy)-methyl]-2-ethoxy-N-[4-(3-pyridinyl)butyl]benzamide], which “inhibition of PAF-induced bronchoconstriction” value (PAF [2]) is on record?
Its value is 96±1%.

`CCCCCCCCCCCCCCCCOCC(COP(=O)([O-])OCC[N+](C)(C)C)OC(C)=O` (centres unmarked) [PAF, reference compound] was tested. Which “bronchoconstrictive effect of PAF, dose lower than that with LTE” value (PAF [2]; i.v., compared with LTE) did it give?
The value was roughly 10 fold.

And the “EC50 response in skin wheal, dose lower than with LTE” value (PAF [3]; compared with LTE)?
The value was 10 fold.

For `CCCc1c(OCCCCCC(=O)NCCCCc2cncnc2)ccc(C(C)=O)c1O` [drawing 31], which IC50 (PAF [1]; Table II) is on record?
Its IC50 is 550 nM.

And the inhibition at 1 µM (TXA2 synthase; [4])?
The inhibition at 1 µM was 66%.

And the IC50 (SRS-A; [5])?
The IC50 was 10000 nM.

How did the IC50 (PAF [1]; Table II) turn out when `CCCc1c(OCC#CCCCC(=O)NCCCCc2cccnc2)ccc(C(C)=O)c1O` [drawing 35] was run?
Its IC50 is 600 nM.

And the IC50 (SRS-A; [5])?
Its IC50 is 700 nM.
